In brackets after ≈: the same amount, converted by molar mass. Like-named read-outs stand apart in the source and are kept apart here.
Assays:
Type in all cases: cell-based
[1] = Cytotoxicity to HepG2.2.15 cells (MTT method); details: human, HepG2.2.15 cells (HBV-transgenic human hepatoma cells), 50% death concentration, eighth day
Excerpt: (§1) Hepatitis B virus (HBV) transgenic human hepatoma carcinoma cell, HepG2.2.15 cell line, can secrete hepatitis B virus particles (containing antigen and DNA) into supernatant when being cultured.
(§2) Under action of antiviral drugs, the contents of HBsAg, HBeAg and viral DNA secreted from cells into the supernatant were detected and are compared with the contents of control groups without drugs, so that the antiviral activity of the compounds of the present invention can be measured as well as the cytotoxic effect of compounds of the present invention. The value concentration of the compounds of the present invention which caused 50% of cells dead and was measured with MTT method was CC50; and the value concentration of the compounds of the present invention which inhibited the secretion of HBsAg and HBeAg detected by ELISA method and inhibited 50% of viral DNA replication detected by fluorescent quantification PCR method was IC50.
(§3) HepG2.2.15 cells were inoculated on a 96-well plate, and the compounds of the present invention were added next day. The medium and the compound solutions of the same concentration were renewed periodically. The culture supernatants were collected on the eighth day to be detected. MTT was added to the cells on the 96-well plate, and MTT dissolving liquid was added after 4 hours to be reacted overnight. OD570 was measured next day on microplate reader. And the cytotoxicity of the compounds of the present invention to the HepG2.2.15 cells, the effect of the compounds of the present invention on the growth of the cells, and the concentration of the compound of the present invention (CC50) causing 50% of the cells dead were estimated according to the OD values.

[2] = tested on: hepatitis B virus (HBV); test: HBV-DNA replication in HepG2.2.15 culture supernatant (fluorescent quantification PCR); details: for IC50: Hepatitis B virus; for DNA replication IC89: ICX: concentration with 89% inhibition of HBV-DNA replication; for DNA replication IC12: ICX: concentration with 12% inhibition of HBV-DNA replication
Excerpt: as §1, §2, §3
A suitable amount of culture supernatant was added into a same volume of virus extract solution, and was boiled after mixed uniformly, then centrifuged at 10000 rpm for 5 min under room temperature. A suitable amount of supernatant was collected for PCR amplification. Five HBV-DNA standard samples were used to set a standard curve. According to the obtained viral DNA replication value, the inhibition rates of HBV-DNA replication of the compound of the present invention at different concentrations were calculated, and then the half inhibition rates of the compounds were calculated to obtain IC50. For the samples that can not be calculated for IC50 value, they can be represented by ICX and given the corresponding concentration values.

[3] = tested on: influenza A virus; test: Anti influenza A virus activity, cytopathic effect (CPE) in MDCK cells
Excerpt: (§4) 4. Screening of the samples for the anti-influenza virus A and B activity: MDCK (canine kidney) cells were used as the virus host to test the inhibition effect of the compounds of the present invention on the cytopathic effect (CPE) of the cells caused by the virus.

[4] = tested on: MDCK (canine kidney) cells; test: 50% toxicity concentration in the anti-influenza screen (MDCK cells); details: 50% toxity concentration, Table 3-2 (influenza screen, MDCK cells)
Excerpt: as §4

[5] = HepG2.2.15 supernatant, eighth day, fluorescent quantification PCR, read-out: DNA replication IC50
[6] = HepG2.2.15, read-out: DNA replication IC50

| Structure (SMILES) | CC50 [1] [µM] | IC50 [2, 5] [µM] | further results |
| --- | --- | --- | --- |
| CC(C)Cc1cnc(-c2nccs2)o1 [Compound C208] | > 100 | 35.8 |  |
| c1ccc(-c2cnc(-c3cccs3)[nH]2)cc1 [Compound C226] | 53.2 | 2.3 |  |
| c1ccc(-c2cnc(-c3cccs3)o2)cc1 [Compound C227] | > 100 | 1.4 |  |
| c1ccc(-c2cnc(-c3cccs3)s2)cc1 [Compound C243] | 84.5 | 0.41 |  |
| CCOC(=O)c1nc(-c2cccs2)[nH]c1C1CC1 [Compound C262] | 34.4 | 4.3 |  |
| CCOC(=O)c1nc(-c2nccs2)[nH]c1C1CC1 [Compound C263-1] | > 100 | 3.7 |  |
| CC(C)Cc1sc(-c2nccs2)nc1C(N)=O [Compound C267] |  |  | DNA replication IC89 ([2]; IC50 not calculable): IC89 = 33 uM |
| CCOC(=O)c1nc(-c2nccs2)[nH]c1C1CCC1 [Compound C277] | > 100 | 3.1 |  |
| CCCCc1[nH]c(-c2nccs2)nc1C(=O)OCC [Compound C279-1] | 94.7 |  | DNA replication IC40 ([2]; ICX: concentration with 40% inhibition of HBV-DNA replication, IC50 not calculable): IC40 = 12.4 uM |
| CCCCc1oc(-c2cccs2)nc1C(=O)OCC [Compound C279-2] | 71.8 | 51.9 |  |
| CCOC(=O)c1nc(-c2cccs2)oc1CC(C)C [Compound C279-3] | > 100 |  |  |
| CCOC(=O)c1nc(-c2nccs2)oc1CC(C)C [Compound C280-1] | > 100 |  |  |
| CCCCc1oc(-c2nccs2)nc1C(=O)OCC [Compound C280-2] | > 100 |  | DNA replication IC26 ([2]; ICX: concentration with 26% inhibition of HBV-DNA replication, IC50 not calculable): IC26 = 0.41 uM |
| CNC(=O)c1nc(-c2nccs2)sc1CC(C)C [Compound C281] |  |  | DNA replication IC94 ([2]; ICX: concentration with 94% inhibition of HBV-DNA replication, IC50 not calculable): IC94 = 33 uM |
| CCOC(=O)c1nc(-c2nccs2)[nH]c1C1CCCC1 [Compound C291] | > 100 | 5.5 |  |
| CCOC(=O)c1nc(-c2ccc(C)s2)[nH]c1CC(C)C [Compound C292] | 139 | 4.65 |  |
| CCOC(=O)c1nc(-c2ccc(C)s2)oc1CC(C)C [Compound C293] | 80 | 126 |  |
| CCCCc1sc(-c2cccs2)nc1C(=O)OCC [Compound C295-1] | 50 | 11.7 |  |
| CC(C)Cc1sc(-c2nccs2)nc1C(=O)N(C)C [Compound C295-3] |  |  | DNA replication IC12 ([2]; IC50 not calculable): IC12 = 1.23 uM |

| Structure (SMILES) | CC50 [1] [µM] | IC50 [2, 5] [µM] | further results |
| --- | --- | --- | --- |
| CCCCc1sc(-c2nccs2)nc1C(=O)OCC [Compound C296-2] | > 100 |  | DNA replication IC12 ([2]; IC50 not calculable): IC12 = 0.41 uM |
| CCOC(=O)c1nc(-c2cscn2)sc1CC(C)C [Compound C296-3] | 116 | 0.14 |  |
| CCOC(=O)c1nc(-c2cccs2)[nH]c1C1CCCCC1 [Compound C304] | > 100 | 4.5 |  |
| CCOC(=O)c1nc(-c2cccs2)oc1C1CCCCC1 [Compound C305-1] | > 100 | 2.6 |  |
| CCOC(=O)c1nc(-c2nccs2)[nH]c1C1CCCCC1 [Compound C305-2] | > 100 | 4.1 |  |
| CCOC(=O)c1nc(-c2nccs2)oc1C1CCCCC1 [Compound C306] | > 100 | 0.8 |  |
| CCOC(=O)c1nc(-c2ccc(CC)s2)oc1CC(C)C [Compound C307] | 80 | 22.5 |  |
| CCOC(=O)c1nc(-c2ccc(C)s2)sc1CC(C)C [Compound C309] | > 100 |  | DNA replication IC14.2 ([2]; ICX: concentration with 14.2% inhibition of HBV-DNA replication, IC50 not calculable): IC14.2 = 0.39 uM |
| CCOC(=O)c1nc(-c2ncc(C)s2)sc1CC(C)C [Compound C310] | > 100 | 0.14 |  |
| CCOC(=O)c1nc(-c2cc3ccccc3[nH]2)[nH]c1CC(C)C [Compound C311-2] | 3.5 | 0.07 |  |
| CCCCc1oc(-c2ccc(CCC)s2)nc1C(=O)OCC [Compound C321-1] | 80 | 5.86 |  |
| CCOC(=O)c1nc(-c2cccs2)sc1C1CCCCC1 [Compound C321-2] | 28.2 |  | IC50 [2, 6]: 1.67 µM |
| CCCc1ccc(-c2nc(C(=O)OCC)c(CC(C)C)o2)s1 [Compound C321-3] | 80 |  | DNA replication IC27 ([2]; ICX: concentration with 27% inhibition of HBV-DNA replication, IC50 not calculable): IC27 = 1.23 uM |
| CCOC(=O)c1nc(-c2nc(CC)cs2)sc1CC(C)C [Compound C324-2] | > 100 | 0.14 |  |
| CCOC(=O)c1nc(-c2cccs2)[nH]c1/C=C/c1ccccc1 [Compound C324] | 61 |  |  |
| CCOC(=O)c1nc(-c2cc3ccccc3[nH]2)sc1CC(C)C [Compound C328-2] | 21.7 |  |  |
| CCOC(=O)c1nc(-c2cc3ccccc3s2)[nH]c1CC(C)C [Compound C328] | > 7.5 | 0.19 |  |
| CCOC(=O)c1nc(-c2cc3ccccc3s2)oc1CC(C)C [Compound C329] | > 100 |  | DNA replication IC41.8 ([2]; ICX: concentration with 41.8% inhibition of HBV-DNA replication, IC50 not calculable): IC41.8 = 4 uM |
| CCCc1ccc(-c2nc(C(=O)OCC)c(CC(C)C)s2)s1 [Compound C337] | 60 |  |  |

| Structure (SMILES) | CC50 [1] [µM] | IC50 [2, 5] [µM] | further results |
| --- | --- | --- | --- |
| CC(C)Cc1sc(-c2nccs2)nc1C(=O)Nc1ccccc1 [Compound C343] |  |  | DNA replication IC19 ([2]; ICX: concentration with 19% inhibition of HBV-DNA replication, IC50 not calculable): IC19 = 1.23 uM |
| CCOC(=O)c1nc(-c2cc3ccccc3s2)sc1CC(C)C [Compound C345] | > 88.1 |  | IC50 [2, 6]: 1.32 µM |
| CCOc1cnc(-c2oc(-c3cccs3)nc2C(=O)c2ccccc2)o1 [Compound C352] | > 33.3 | 8.3 |  |
| CC(C)Cc1sc(-c2nccs2)nc1C(=O)NCc1ccccc1 [Compound C357] | 80 |  | DNA replication IC89 ([2]; IC50 not calculable): IC89 = 33 uM |
| CCOC(=O)c1nc(-c2nc3cc(OC)ccc3s2)sc1CC(C)C [Compound C376] | 127 | 23 |  |
| NC(=O)c1ncn([C@@H]2O[C@H](CO)[C@@H](O)[C@H]2O)n1 [Ribavirin, reference compound] |  |  | IC50 [3]: 3.73 µg/mL (≈ 15.3 µM) |
| Cc1oc(-c2csc([C@@H](NC(=O)CC3=CCCC3)C(C)C)n2)nc1C(=O)O [Wang389.47] |  |  | TC50 [4]: 480.75 µg/mL (≈ 1230 µM); IC50 [3]: 29 µg/mL (≈ 74.5 µM) |
| COC(=O)c1nc(-c2csc([C@@H](NC(=O)C3CCCC3)C(C)C)n2)oc1C [Wang391.49-1] |  |  | TC50 [4]: 250 µg/mL (≈ 639 µM); IC50 [3]: 0.56 µg/mL (≈ 1.43 µM) |
| COC(=O)c1nc(-c2csc([C@@H](NC(=O)CC=C(C)C)C(C)C)n2)oc1C [Wang391.49-2] |  |  | TC50 [4]: >1000 µg/mL; IC50 [3]: > 192 µg/mL |
| COc1ccccc1C(=O)N[C@H](c1nc(-c2nc(C(=O)O)c(C)o2)cs1)C(C)C [Wang415.46] |  |  | TC50 [4]: 333.33 µg/mL (≈ 802 µM); IC50 [3]: 29 µg/mL (≈ 69.8 µM) |
| COC(=O)c1nc(-c2csc([C@@H](NC(=O)c3ccccc3OC)C(C)C)n2)oc1C [Wang429.49] |  |  | TC50 [4]: 333.33 µg/mL (≈ 776 µM); IC50 [3]: 47.7 µg/mL (≈ 111 µM) |
| CCC(=O)N[C@H](c1nc(-c2nc(C(=O)N[C@@H](C)c3nc(C(=O)OC)co3)c(C)o2)cs1)C(C)C [Wang489.55] |  |  | TC50 [4]: 577.35 µg/mL (≈ 1180 µM); IC50 [3]: 160 µg/mL (≈ 327 µM) |
| COC(=O)c1coc([C@H](C)NC(=O)c2nc(-c3csc([C@@H](NC(=O)CC=C(C)C)C(C)C)n3)oc2C)n1 [Wang529.61-2] |  |  | TC50 [4]: 577.35 µg/mL (≈ 1090 µM); IC50 [3]: 111 µg/mL (≈ 210 µM) |
| C=CCC(=O)N[C@H](c1nc(-c2nc(C(=O)OC)c(C)o2)cs1)C(C)C [Wang 363.43-2] |  |  | TC50 [4]: 500 µg/mL (≈ 1380 µM); IC50 [3]: 0.42 µg/mL (≈ 1.16 µM) |
| COC(=O)c1nc(-c2csc([C@@H](NC(=O)C3CCC3)C(C)C)n2)oc1C [Wang 377.46-1] |  |  | TC50 [4]: 500 µg/mL (≈ 1320 µM); IC50 [3]: 111 µg/mL (≈ 294 µM) |
| C=CCCC(=O)N[C@H](c1nc(-c2nc(C(=O)OC)c(C)o2)cs1)C(C)C [Wang 377.46-2] |  |  | TC50 [4]: 577.35 µg/mL (≈ 1530 µM); IC50 [3]: 259 µg/mL (≈ 685 µM) |
| COC(=O)c1nc(-c2csc([C@@H](NC(=O)CC3=CCCC3)C(C)C)n2)oc1C [Wang 403.50] |  |  | TC50 [4]: 333.33 µg/mL (≈ 826 µM); IC50 [3]: 64.2 µg/mL (≈ 159 µM) |
| COC(=O)c1nc(-c2csc([C@@H](NC(=O)CC3=CCCCC3)C(C)C)n2)oc1C [Wang 417.52] |  |  | TC50 [4]: 231.12 µg/mL (≈ 554 µM); IC50 [3]: 68.7 µg/mL (≈ 165 µM) |
| C=CCC(=O)N[C@H](c1nc(-c2nc(C(=O)N[C@@H](C)c3nc(C(=O)OC)co3)c(C)o2)cs1)C(C)C [Wang 501.56-2] |  |  | TC50 [4]: 577.35 µg/mL (≈ 1150 µM); IC50 [3]: 68.7 µg/mL (≈ 137 µM) |
